Test results published in patent US10196393B2, “JAK inhibitors containing a 4-membered heterocyclic amide” (THERAVANCE BIOPHARMA R&D IP, LLC, priority 2017, dated 2019).
pIC50: −log10 of the molar value.

Tests used:
[1] = test system: IL-13 induced STAT6 phosphorylation in BEAS-2B human lung epithelial cells; assay: Cellular JAKI potency assay (AlphaScreen), BEAS-2B; type: cell-based; conditions: Homo sapiens, BEAS-2B cells
Procedure: Assay 2: Cellular JAKI Potency Assay
The AlphaScreen JAKI cellular potency assay was carried out by measuring interleukin-13 (IL-13, R&D Systems) induced STAT6 phosphorylation in BEAS-2B human lung epithelial cells (ATCC). The anti-STAT6 antibody (Cell Signaling Technologies) was conjugated to AlphaScreen acceptor beads (Perkin Elmer), while the anti-pSTAT6 (pTyr641) antibody (Cell Signaling Technologies) was biotinylated using EZ-Link Sulfo-NHS-Biotin (Thermo Scientific).
BEAS-2B cells were grown at 37° C. in a 5% CO2 humidified incubator in 50% DMEM/50% F-12 medium (Life Technologies) supplemented with 10% FBS (Hyclone), 100 U/mL penicillin, 100 μg/mL streptomycin (Life Technologies), and 2 mM GlutaMAX (Life Technologies). On day 1 of the assay, cells were seeded at a 7,500 cells/well density in white poly-D-lysine-coated 384-well plates (Corning) with 25 μL medium, and were allowed to adhere overnight in the incubator. On day 2 of the assay, the medium was removed and replaced with 12 μL of assay buffer (Hank's Balanced Salt Solution/HBSS, 25 mM HEPES, and 1 mg/ml bovine serum albumin/BSA) containing dose-responses of test compounds. Compounds were serially diluted in DMSO and then diluted another 1000-fold in media to bring the final DMSO concentration to 0.1%. Cells were incubated with test compounds at 37° C. for 1 h, and followed by the addition of 12 μl of pre-warmed IL-13 (80 ng/mL in assay buffer) for stimulation. After incubating at 37° C. for 30 min, the assay buffer (containing compound and IL-13) was removed, and 10 μL of cell lysis buffer (25 mM HEPES, 0.1% SDS, 1% NP-40, 5 mM MgCl2, 1.3 mM EDTA, 1 mM EGTA, and supplement with Complete Ultra mini protease inhibitors and PhosSTOP from Roche Diagnostics). The plates were shaken at ambient temperature for 30 min before the addition of detection reagents. A mixture of biotin-anti-pSTAT6 and anti-STAT6 conjugated acceptor beads was added first and incubated at ambient temperature for 2 h, followed by the addition of streptavidin conjugated donor beads (Perkin Elmer). After a minimum of 2 h incubation, the assay plates were read on the EnVision plate reader. AlphaScreen luminescence signals were recorded and utilized to calculate the percent inhibition values based on DMSO and background controls.
For dose-response analysis, percent inhibition data were plotted vs. compound concentrations, and IC50 values were determined from a 4-parameter robust fit model with the Prism software. Results may also be expressed as the negative logarithm of the IC50 value, pIC50.
Test compounds having a lower IC50 value or higher pIC50 value in this assay show greater inhibition of IL-13 induced STAT6 phosphorylation.

[2] = test system: IL-2/anti-CD3 stimulated STAT5 phosphorylation in CD4+ T cells; assay: Cellular JAK potency assay: inhibition of IL-2 stimulated pSTAT5 in CD4+ T cells; type: cell-based; conditions: 0.5 h; CD4+ T cells in human PBMCs, 30 min stimulation; read-out: pIC50, inhibition of IL-2 stimulated pSTAT5 (converted)
Procedure: Assay 9: Cellular JAK Potency Assay: Inhibition of IL-2 Stimulated pSTAT5 in CD4+ T Cells
The potency of the test compound for inhibition of interleukin-2 (IL-2)/anti-CD3 stimulated STAT5 phosphorylation was measured in CD4-positive (CD4+) T cells in human peripheral blood mononuclear cells (PBMCs) isolated from human whole blood (Stanford Blood Center) using flow cytometry. Because IL-2 signals through JAK, this assay provides a measure of JAK cellular potency. […]
(2) After cytokine stimulation, cells were fixed with pre warmed fix solution (200 μL; BD Biosciences) for 10 min at 37° C., 5% CO2, washed twice with DPBS buffer (1 mL, Life Technologies), and resuspended in ice cold Perm Buffer III (1000 μL, BD Biosciences) for 30 min at 4° C. […] After incubation, cells were washed twice in FACS buffer before being analyzed using a LSRII flow cytometer (BD Biosciences). To determine the inhibitory potency of test compounds in response to IL-2/anti-CD3, the median fluorescent intensity (MFI) of pSTAT5 was measured in CD4+ T cells. IC50 values were determined from analysis of the inhibition curves of MFI vs compound concentration. Data are expressed as pIC50 (negative decadic logarithm IC50) values.

## CCc1cc(O)c(F)cc1-c1ccc2c(-c3nc4c([nH]3)CN(C(C)C)[C@H](C(=O)N3CC(N(C)C)C3)C4)n[nH]c2c1 [Example 2, (S)-(3-(dimethylamino)azetidin-1-yl)(2-(6-(2-ethyl-5-fluoro-4-hydroxyphenyl)-1H-indazol-3-yl)-5-isopropyl-4,5,6,7-tetrahydro-3H-imidazo[4,5-c]pyridin-6-yl)methanone]
[1]
  pIC50: 8.39
[2]
  IC50: ~50.1 nM
